Measurements as given in publication PMC8958505, “Discovery of Potential Neuroprotective Agents against Paclitaxel-Induced Peripheral Neuropathy” (Journal of Medicinal Chemistry, 2022).
Where a name gives a salt, the structure may show the parent alone. Read-outs that look alike come from different tables or passages of the source.

How the values were obtained:
[1] = system: macrophages and microglia in DRG tissues; assay: Immunofluorescence of macrophages and microglia in DRG tissues; format: in vivo, mouse; conditions: day 7
Method: DRG tissues were isolated on day 7 after first paclitaxel injection. The tissues were fixed in 4% paraformaldehyde at 4 °C overnight and subsequently placed in 30% sucrose for sample dehydration. During the frozen section procedure, the tissues were embedded in OCT (EMS; #14120) and sectioned into 20 μm thick slices. The DRG tissue sections were permeabilized with 0.1% Triton X-100 in PBS for 1 h and then blocked with CAS-Block solution (#008120; Thermo Fisher, USA) at room temperature for another 1 h. DRG tissue sections were stained with primary antibody against CD68 (1:100 dilution; Novus), NOS2 (1:100 dilution; Santa Cruz), Arginase-1 (1:100 dilution; Santa Cruz), and Iba-1 (1:100 dilution; Santa Cruz) at 4 °C overnight. Afterward, the samples were washed with PBS and stained with secondary antibodies (Alexa-488, 594, 1:200 dilution; Invitrogen) and Hoechst 33342 (4 μg/mL; Invitrogen) at room temperature for 1 h. A 60× objective by an Olympus FV3000 confocal microscope was used to acquire immunofluorescence images.

[2] = system: mice; assay: Hemodynamic monitoring (systolic pressure, heart rate) and body weight; format: in vivo, mouse
Method: The baseline of every neurological behavior test was measured in 6-week-old C57BL/6J female mice prior to treatment. […] Three behavioral tests were performed on the same groups of animals once per week and no more than two behavioral tests on the same day. The first behavioral experiment was performed on the next day after the last course of treatment. Mechanical hyperalgesia was evaluated by using von Frey filament (#2390, IITC Inc., USA), thermal sensitivity was determined by the tail immersion assay (water temperature: 48–49 °C), and motor coordination was assessed by rotarod (#7750, Ugo Basile Biological Research Apparatus, Italy). After the first drug implantation, the body weight was recorded every 6 days throughout the entire experiment.
Noninvasive automatized tail-cuff system (Visitech Systems, Apex, NC, USA) was used to measure the systolic pressure and the heart rate of conscious mice. All mice were placed in a constant temperature platform at least three times to adapt the system prior to hemodynamic measurement. The root of the tail was mounted on the occlusion and sensor cuff after the mouse was placed in a constant temperature platform. Each mouse was measured for at least 15 repetitions to obtain the mean of systolic pressure and heart rate. The hemodynamic change of each mouse was measured at five different time points.

[3] = molecular target: Adenosine A3 (Homo sapiens, UniProt P0DMS8); assay: LeadProfilingScreen: Adenosine A3; format: binding
[4] = molecular target: Adrenergic α1D (Homo sapiens, UniProt P25100); assay: LeadProfilingScreen: Adrenergic α1D; format: binding
[5] = molecular target: Adrenergic β1 (Homo sapiens, UniProt P08588); assay: LeadProfilingScreen: Adrenergic β1; format: binding; conditions: read-out: Inhibition (%), Adrenergic β1
Text: LeadProfilingScreen (Total # of Assays: 67)
To evaluate, in LeadProfilingScreen, the activity of test compound CN168 (Panlabs # 1251879). […]
Summary of Significant Results
Biochemical assay results are presented as the percent inhibition of specific binding or activity throughout the report.
All other results are expressed in terms of that assay's quantitation method.
• For primary assays, only the lowest concentration with a significant response judged by the assays' criteria, is […]
• Where applicable, either the secondary assay results with the lowest dose/concentration meeting the significance […]
• Unless otherwise requested, primary screening in duplicate with quantitative data (e.g., IC50 ± SEM, Ki ± SEM and nH) are shown where applicable for individual requested assays. In screening packages, primary screening in duplicate with semi-quantitative data (e.g., estimated IC50, Ki and nH) are shown where applicable (concentration range of 4 log units); available secondary functional assays are carried out ([…]) and MEC or MIC determined only if active in primary assays >50% at 1 log unit below initial test concentration. […]

[6] = molecular target: Cannabinoid CB1 (Homo sapiens, UniProt P21554); assay: LeadProfilingScreen: Cannabinoid CB1; format: binding
[7] = system: Glutamate, NMDA, Phencyclidine; assay: LeadProfilingScreen: Glutamate, NMDA, Phencyclidine; format: binding, rat; conditions: 10 μM
[8] = molecular target: Histamine H2 (Homo sapiens, UniProt P25021); assay: LeadProfilingScreen: Histamine H2; format: binding
[9] = molecular target: Histamine H3 (Homo sapiens, UniProt Q9Y5N1); assay: LeadProfilingScreen: Histamine H3; format: binding
[10] = molecular target: Muscarinic M2 (Homo sapiens, UniProt P08172); assay: LeadProfilingScreen: Muscarinic M2; format: binding
[11] = molecular target: Neuropeptide Y Y2 (Homo sapiens, UniProt P49146); assay: LeadProfilingScreen: Neuropeptide Y Y2; format: binding
[12] = molecular target: Nicotinic Acetylcholine α1, Bungarotoxin (Homo sapiens, UniProt P02708+P07510+Q07001); format: binding; conditions: 10 μM
[13] = molecular target: Prostanoid EP4 (Homo sapiens, UniProt P35408); assay: LeadProfilingScreen: Prostanoid EP4; format: binding
[14] = system: Thyroid Hormone; assay: LeadProfilingScreen: Thyroid Hormone; format: binding, rat; conditions: 10 μM
[15] = molecular target: Transporter, Norepinephrine (NET) (Homo sapiens, UniProt P23975); assay: LeadProfilingScreen: Transporter, Norepinephrine (NET); format: binding
[16] = CN016 (5, 10 or 20 mg/kg) and paclitaxel (4.5 mg/kg)

Sequence of Nicotinic Acetylcholine α1, Bungarotoxin (P11230 24-501): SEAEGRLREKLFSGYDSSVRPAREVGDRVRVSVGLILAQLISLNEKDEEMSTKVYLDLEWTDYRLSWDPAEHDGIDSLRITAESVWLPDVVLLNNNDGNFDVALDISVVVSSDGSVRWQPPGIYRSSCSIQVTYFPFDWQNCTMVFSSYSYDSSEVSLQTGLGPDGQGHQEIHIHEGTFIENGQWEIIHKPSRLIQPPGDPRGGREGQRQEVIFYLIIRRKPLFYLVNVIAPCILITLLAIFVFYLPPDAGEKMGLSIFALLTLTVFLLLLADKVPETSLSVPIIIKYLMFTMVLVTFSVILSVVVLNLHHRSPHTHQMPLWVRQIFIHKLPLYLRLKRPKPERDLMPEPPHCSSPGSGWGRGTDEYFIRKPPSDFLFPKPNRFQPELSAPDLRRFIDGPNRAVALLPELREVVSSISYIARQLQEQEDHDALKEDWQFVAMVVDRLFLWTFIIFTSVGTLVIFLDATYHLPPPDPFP
Sequence of Nicotinic Acetylcholine α1, Bungarotoxin (P07510 23-517): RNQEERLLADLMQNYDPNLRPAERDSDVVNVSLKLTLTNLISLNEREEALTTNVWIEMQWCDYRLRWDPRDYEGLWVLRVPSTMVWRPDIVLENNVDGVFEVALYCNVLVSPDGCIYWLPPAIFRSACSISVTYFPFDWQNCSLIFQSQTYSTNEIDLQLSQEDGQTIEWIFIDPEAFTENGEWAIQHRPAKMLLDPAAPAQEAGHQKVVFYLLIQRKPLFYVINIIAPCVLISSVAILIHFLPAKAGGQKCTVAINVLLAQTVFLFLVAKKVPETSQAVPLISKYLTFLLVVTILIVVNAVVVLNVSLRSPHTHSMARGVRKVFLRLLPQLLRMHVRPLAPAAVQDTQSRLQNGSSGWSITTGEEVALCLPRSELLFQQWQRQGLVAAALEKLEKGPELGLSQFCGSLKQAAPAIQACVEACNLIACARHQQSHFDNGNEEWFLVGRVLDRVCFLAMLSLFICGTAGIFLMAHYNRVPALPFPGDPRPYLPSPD
Sequence of Nicotinic Acetylcholine α1, Bungarotoxin (Q07001 22-517): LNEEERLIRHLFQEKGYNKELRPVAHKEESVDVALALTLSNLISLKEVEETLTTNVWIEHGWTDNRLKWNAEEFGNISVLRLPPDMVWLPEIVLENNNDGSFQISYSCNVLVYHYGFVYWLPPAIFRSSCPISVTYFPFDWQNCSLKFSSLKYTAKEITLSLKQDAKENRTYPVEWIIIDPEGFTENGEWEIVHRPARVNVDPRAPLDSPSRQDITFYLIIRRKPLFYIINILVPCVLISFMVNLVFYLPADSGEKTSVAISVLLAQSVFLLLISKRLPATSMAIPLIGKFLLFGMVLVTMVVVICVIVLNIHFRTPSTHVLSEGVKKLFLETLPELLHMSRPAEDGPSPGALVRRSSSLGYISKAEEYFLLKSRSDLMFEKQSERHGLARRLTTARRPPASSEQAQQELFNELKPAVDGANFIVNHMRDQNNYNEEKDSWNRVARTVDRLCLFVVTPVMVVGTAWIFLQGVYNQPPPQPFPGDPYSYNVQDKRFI
Sequence of Nicotinic Acetylcholine α1, Bungarotoxin (P02708 21-457): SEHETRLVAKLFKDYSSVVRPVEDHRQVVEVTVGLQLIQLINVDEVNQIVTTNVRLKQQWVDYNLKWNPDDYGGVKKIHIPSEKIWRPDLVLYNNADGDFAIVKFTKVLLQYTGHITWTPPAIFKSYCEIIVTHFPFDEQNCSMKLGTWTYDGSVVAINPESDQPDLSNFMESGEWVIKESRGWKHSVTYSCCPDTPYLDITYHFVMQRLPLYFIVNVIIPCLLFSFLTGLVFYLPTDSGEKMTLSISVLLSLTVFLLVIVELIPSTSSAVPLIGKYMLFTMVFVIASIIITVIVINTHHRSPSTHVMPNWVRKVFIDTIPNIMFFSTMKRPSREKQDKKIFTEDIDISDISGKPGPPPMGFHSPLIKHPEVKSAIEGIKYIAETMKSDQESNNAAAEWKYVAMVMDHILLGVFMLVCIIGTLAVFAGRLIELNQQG
Sequence of Cannabinoid CB1 (P21554 whole entry): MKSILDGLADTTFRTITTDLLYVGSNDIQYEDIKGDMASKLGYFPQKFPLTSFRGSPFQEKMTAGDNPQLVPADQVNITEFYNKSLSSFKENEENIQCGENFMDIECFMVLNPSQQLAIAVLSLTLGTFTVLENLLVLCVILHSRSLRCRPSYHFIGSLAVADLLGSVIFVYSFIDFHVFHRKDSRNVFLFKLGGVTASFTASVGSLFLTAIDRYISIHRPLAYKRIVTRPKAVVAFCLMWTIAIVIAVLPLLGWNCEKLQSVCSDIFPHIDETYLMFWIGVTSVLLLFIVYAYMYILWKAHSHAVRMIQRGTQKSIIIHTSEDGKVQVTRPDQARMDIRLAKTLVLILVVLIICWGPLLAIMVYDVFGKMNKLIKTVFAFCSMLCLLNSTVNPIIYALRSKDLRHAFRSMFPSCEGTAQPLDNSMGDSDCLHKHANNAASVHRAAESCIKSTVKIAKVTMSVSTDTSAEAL
Sequence of Prostanoid EP4 (P35408 whole entry): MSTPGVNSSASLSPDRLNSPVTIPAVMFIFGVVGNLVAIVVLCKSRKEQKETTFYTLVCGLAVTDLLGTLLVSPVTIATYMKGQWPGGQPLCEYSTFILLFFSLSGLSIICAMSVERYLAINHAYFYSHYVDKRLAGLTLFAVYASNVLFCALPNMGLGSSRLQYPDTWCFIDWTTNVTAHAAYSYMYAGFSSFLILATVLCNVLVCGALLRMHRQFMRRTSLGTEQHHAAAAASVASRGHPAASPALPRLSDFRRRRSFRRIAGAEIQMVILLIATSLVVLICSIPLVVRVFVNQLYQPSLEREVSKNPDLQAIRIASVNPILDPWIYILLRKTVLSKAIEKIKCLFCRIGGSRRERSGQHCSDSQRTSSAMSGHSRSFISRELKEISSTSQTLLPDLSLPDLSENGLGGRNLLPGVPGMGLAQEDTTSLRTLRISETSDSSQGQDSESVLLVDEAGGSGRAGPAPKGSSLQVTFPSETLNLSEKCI
Sequence of Adenosine A3 (P0DMS8 whole entry): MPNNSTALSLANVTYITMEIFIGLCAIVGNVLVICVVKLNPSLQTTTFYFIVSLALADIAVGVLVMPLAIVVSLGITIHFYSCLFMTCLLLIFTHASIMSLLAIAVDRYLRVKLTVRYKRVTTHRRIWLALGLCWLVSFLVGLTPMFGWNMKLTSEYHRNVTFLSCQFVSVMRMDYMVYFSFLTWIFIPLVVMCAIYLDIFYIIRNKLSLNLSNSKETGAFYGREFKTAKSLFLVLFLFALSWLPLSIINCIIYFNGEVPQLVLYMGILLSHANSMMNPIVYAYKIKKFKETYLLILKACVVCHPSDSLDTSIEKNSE
Sequence of Adrenergic α1D (P25100 whole entry): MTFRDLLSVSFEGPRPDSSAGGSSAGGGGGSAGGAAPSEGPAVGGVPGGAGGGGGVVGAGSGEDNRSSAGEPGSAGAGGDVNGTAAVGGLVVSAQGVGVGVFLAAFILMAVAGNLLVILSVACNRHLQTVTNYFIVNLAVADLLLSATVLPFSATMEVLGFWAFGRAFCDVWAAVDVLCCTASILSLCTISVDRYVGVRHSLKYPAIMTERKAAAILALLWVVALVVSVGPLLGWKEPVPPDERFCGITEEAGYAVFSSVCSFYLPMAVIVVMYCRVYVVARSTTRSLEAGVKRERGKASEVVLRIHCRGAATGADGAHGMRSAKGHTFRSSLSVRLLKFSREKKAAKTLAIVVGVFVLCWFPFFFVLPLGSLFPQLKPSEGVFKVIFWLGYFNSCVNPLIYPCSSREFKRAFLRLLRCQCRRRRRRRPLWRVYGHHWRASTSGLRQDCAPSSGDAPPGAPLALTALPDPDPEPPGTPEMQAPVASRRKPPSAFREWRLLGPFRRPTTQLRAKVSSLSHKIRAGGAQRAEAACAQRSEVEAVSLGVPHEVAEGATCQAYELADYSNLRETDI
Sequence of Adrenergic β1 (P08588 whole entry): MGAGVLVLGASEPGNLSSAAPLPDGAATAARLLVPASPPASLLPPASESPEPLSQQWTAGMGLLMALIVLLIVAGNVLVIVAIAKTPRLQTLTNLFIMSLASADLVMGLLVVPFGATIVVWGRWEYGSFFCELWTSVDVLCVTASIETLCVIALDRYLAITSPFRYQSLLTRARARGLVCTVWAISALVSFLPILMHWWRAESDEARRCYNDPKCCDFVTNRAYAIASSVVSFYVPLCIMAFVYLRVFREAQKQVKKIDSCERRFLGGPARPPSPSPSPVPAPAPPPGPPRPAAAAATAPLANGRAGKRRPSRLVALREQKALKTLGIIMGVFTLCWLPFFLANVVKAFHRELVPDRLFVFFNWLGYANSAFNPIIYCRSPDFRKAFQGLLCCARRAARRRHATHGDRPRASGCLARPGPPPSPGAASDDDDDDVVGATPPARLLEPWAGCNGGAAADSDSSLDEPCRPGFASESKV
Sequence of Histamine H2 (P25021 whole entry): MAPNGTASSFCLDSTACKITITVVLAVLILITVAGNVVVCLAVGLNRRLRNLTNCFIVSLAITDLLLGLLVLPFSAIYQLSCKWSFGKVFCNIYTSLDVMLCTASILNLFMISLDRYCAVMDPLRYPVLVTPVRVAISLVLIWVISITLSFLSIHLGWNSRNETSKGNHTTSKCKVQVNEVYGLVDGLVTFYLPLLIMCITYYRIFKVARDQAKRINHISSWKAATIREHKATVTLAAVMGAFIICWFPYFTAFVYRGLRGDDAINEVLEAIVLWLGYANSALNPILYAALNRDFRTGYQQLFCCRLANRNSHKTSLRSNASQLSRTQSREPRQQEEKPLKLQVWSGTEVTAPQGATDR
Sequence of Neuropeptide Y Y2 (P49146 whole entry): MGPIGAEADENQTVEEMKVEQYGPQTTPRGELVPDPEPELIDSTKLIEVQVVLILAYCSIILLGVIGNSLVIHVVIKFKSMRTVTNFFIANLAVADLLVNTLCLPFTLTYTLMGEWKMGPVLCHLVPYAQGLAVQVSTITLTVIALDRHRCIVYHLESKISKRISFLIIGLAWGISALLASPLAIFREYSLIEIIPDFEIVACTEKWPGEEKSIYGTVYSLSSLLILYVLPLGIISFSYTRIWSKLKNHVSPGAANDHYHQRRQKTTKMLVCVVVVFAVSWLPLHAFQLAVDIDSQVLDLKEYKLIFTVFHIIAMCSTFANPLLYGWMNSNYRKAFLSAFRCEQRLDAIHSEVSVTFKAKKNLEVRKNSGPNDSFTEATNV

With `O=P(O)(O)CCN1CCC(Nc2cc(N3CCOCC3)nc(NCc3cn(CCCO)nn3)n2)CC1` [CN016, {2-[4-(2-{[1-(3-Hydroxy-propyl)-1H-[1,2,3]triazol-4-ylmethyl]-amino}-6-morpholin-4-yl-pyrimidin-4-ylamino)-piperidin-1-yl]-ethyl}-phosphonic Acid Hydrobromide Salt] the “infiltration of M1 and M2 macrophages in DRG tissues” value ([1]; CN016 10 or 20 mg/kg before paclitaxel) was “significantly diminished”, the “paclitaxel-induced M1 and M2 macrophages recruitment” value ([1]; CN016 low dosage) was “failed to inhibit” and the “paclitaxel-induced activation of M1 microglia in DRG neurons” value [1] was “dramatically reduce”. For the same compound, the “harmful effects, including heart rhythm, systolic blood pressure, and weight change” value ([2]; 20 mg/kg) was “no harmful effects”, the heart rhythm variability [2, 16] was “did not cause” and the “systolic blood pressure fluctuations” value [2, 16] was “did not cause”. The weight change [2, 16] was “did not cause”, the inhibition at 10 µM [3] was 0% and the inhibition at 10 µM [4] was -6%. For the same compound, the inhibition at 10 µM [5] was 4%, the inhibition at 10 µM [6] was -5% and the “Inhibition (%), Glutamate, NMDA, Phencyclidine” value [7] was -4%. For the same compound, the inhibition at 10 µM [8] was 0%, the inhibition at 10 µM [9] was 2% and the inhibition at 10 µM [10] was -1%. The inhibition at 10 µM [11] was 10%, the “Inhibition (%), Nicotinic Acetylcholine α1, Bungarotoxin” value [12] was 7% and the “Inhibition (%), Nicotinic Acetylcholine α1, Bungarotoxin” value ([12]; listed as CN168, 10 µM) was -6%. The inhibition at 10 µM [13] was 4%, the “Inhibition (%), Thyroid Hormone” value [14] was 7% and the inhibition at 10 µM [15] was -1%.
